Results from USRE47689E1, “Compounds for treating spinal muscular atrophy” (PTC Therapeutics, Inc., priority 2011, dated 2019).
Like-named read-outs stand apart in the source and are kept apart here. Values belong to the compound of their own block, whether it stands above or below them.

Experiments:
[1] = system: Smn protein; experiment: Smn protein assay in cultured cells (SMN HTRF); type: cell-based, human; settings: 48 hours; for maximum fold (Fold) increase of Smn protein: SMA patient fibroblast cells, 7-point concentration data, fold increase relative to vehicle control (SMN HTRF); for EC1.5x (concentration giving 1.5-fold Smn protein increase): SMA Type 1 patient fibroblast cells (GM03813), 7-point concentration curve, SMN HTRF, concentration producing 1.5 times Smn protein vs DMSO vehicle control, read-out: EC1.5x for Smn protein expression
Procedure, shortened: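 Lysates in RIPA with protease inhibitors are incubated overnight at room temperature with HTRF anti-SMN antibodies. EC1.5x is derived from fold increase in ΔF over vehicle.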

[2] = system: SMN2 minigene (full length SMN2 minigene mRNA containing SMN2 exon 7); experiment: SMN2 minigene mRNA splicing RT-qPCR assay in cultured cells; type: cell-based, human; settings: Homo sapiens, HEK293-H, read-out: EC1.5x for production of full length SMN2 mRNA
Procedure, shortened: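 Read-out: full-length (exon 7-included) SMN2 minigene mRNA by multiplex RT-qPCR with GAPDH, efficiency-corrected (1+E)^−Ct, GAPDH-normalized and divided by vehicle. Stably transfected HEK293H cells, 24 h compound exposure, duplicates per concentration. Value is EC1.5x, reported as star ranges.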

[3] = HEK293H cells stably transfected with SMN2-A minigene, 24 hours, 7-point concentration curve, 1.5-fold relative to vehicle-treated cells

Structure (SMILES): Cc1nc(C)c2cc(-c3cc4ccc(N5CCNCC5)cc4oc3=O)sc2n1 [Cpd 705, 3-(2,4-dimethylthieno[2,3-d]pyrimidin-6-yl)-7-(piperazin-1-yl)-2H-chromen-2-one]
maximum fold (Fold) increase of Smn protein [1]: *** (fold increase between >1.35 and ≤1.5) | melting point: 275 °C (dec.) | EC (1.5-fold) [2, 3]: 0.1 to 0.3 µM

Structure (SMILES): Cc1ccn2cc(-c3cc4ccc(N5C[C@@H](C)N[C@@H](C)C5)cc4oc3=O)nc2c1 [Compound 133, 7-[(3R,5S)-3,5-dimethylpiperazin-1-yl]-3-(7-methylimidazo[1,2-a]pyridin-2-yl)-2H-chromen-2-one]
EC1.5x (concentration giving 1.5-fold Smn protein increase) [1]: 3000 to 10000 nM | maximum fold (Fold) increase of Smn protein [1]: *** (fold increase between >1.35 and ≤1.5) | melting point: 210 to 217 °C | EC (1.5-fold) [2, 3]: 0.1 to 0.3 µM

Structure (SMILES): Cc1cc2cc(-c3cc4ccc(N5CCN(C)CC5)cc4oc3=O)oc2c(C)n1 [Compound 763, 3-(5,7-dimethylfuro[2,3-c]pyridin-2-yl)-7-(4-methylpiperazin-1-yl)-2H-chromen-2-one]
EC1.5x (concentration giving 1.5-fold Smn protein increase) [1]: < 300 nM | maximum fold (Fold) increase of Smn protein [1]: **** (fold increase between >1.5 and ≤1.65) | melting point: 229 to 232 °C | EC (1.5-fold) [2, 3]: < 0.1 µM

Structure (SMILES): Cc1nc(Cl)cn2cc(-c3cc4ccc(N5CC[C@H](N(C)C)C5)cc4oc3=O)nc12 [Compound 765, 3-(6-chloro-8-methylimidazo[1,2-a]pyrazin-2-yl)-7-[(3S)-3-(dimethylamino)pyrrolidin-1-yl]-2H-chromen-2-one]
maximum fold (Fold) increase of Smn protein [1]: * (maximum fold increase of ≤1.2) | melting point: 210 to 215 °C | EC (1.5-fold) [2, 3]: 0.3 to 1 µM

Structure (SMILES): Cc1nc2ccc(-c3cc4ccc(N5CCCNCC5)cc4oc3=O)cc2s1 [Compound 771, 7-(1,4-diazepan-1-yl)-3-(2-methyl-1,3-benzothiazol-6-yl)-2H-chromen-2-one]
maximum fold (Fold) increase of Smn protein [1]: * (maximum fold increase of ≤1.2) | melting point: 228 to 230 °C | EC (1.5-fold) [2, 3]: 1 to 3 µM

Structure (SMILES): O=c1oc2cc(N3CCNCC3)ccc2cc1Nc1ccccc1 [Compound 75, 3-(phenylamino)-7-(piperazin-1-yl)-2H-chromen-2-one]
maximum fold (Fold) increase of Smn protein [1]: * (maximum fold increase of ≤1.2) | melting point: 140 to 143 °C | EC (1.5-fold) ([2]; 24 h): 3 to 30 µM

Structure (SMILES): CN(C)CCN(C)c1ccc2cc(-c3cn4ccsc4n3)c(=O)oc2c1 [Compound 202, 7-{[2-(dimethylamino)ethyl](methyl)amino}-3-(imidazo[2,1-b][1,3]thiazol-6-yl)-2H-chromen-2-one]
maximum fold (Fold) increase of Smn protein [1]: ** (fold increase between >1.2 and ≤1.35) | melting point: 185 to 188 °C | EC (1.5-fold) [2, 3]: 0.3 to 1 µM

Structure (SMILES): Cc1cn2cc(-c3cc4ccc(OCCNC(C)(C)CO)cc4oc3=O)nc2c(C)n1 [Compound 955, 3-(6,8-dimethylimidazo[1,2-a]pyrazin-2-yl)-7-{2-[(1-hydroxy-2-methylpropan-2-yl)amino]ethoxy}-2H-chromen-2-one]
maximum fold (Fold) increase of Smn protein [1]: *** (fold increase between >1.35 and ≤1.5) | melting point: 187 to 191 °C | EC (1.5-fold) [2, 3]: 0.1 to 0.3 µM

Structure (SMILES): Cc1cn2cc(-c3cc4ccc(N5CCN(C)[C@H](C)C5)cc4oc3=O)cnc2n1 [Compound 660, 7-[(3R)-3,4-dimethylpiperazin-1-yl]-3-(2-methylimidazo[1,2-a]pyrimidin-6-yl)-2H-chromen-2-one]
EC1.5x (concentration giving 1.5-fold Smn protein increase) [1]: 300 to 1000 nM | maximum fold (Fold) increase of Smn protein [1]: ***** (fold increase >1.65) | melting point: 280 to 282 °C | EC (1.5-fold) [2, 3]: < 0.1 µM

Structure (SMILES): Cc1ccc2nc(-c3cc4ccc(CN(C)CCO)cc4oc3=O)cn2c1 [Cpd 148, 7-{[(2-hydroxyethyl)(methyl)amino]methyl}-3-(6-methylimidazo[1,2-a]pyridin-2-yl)-2H-chromen-2-one]
EC1.5x (concentration giving 1.5-fold Smn protein increase) [1]: 1000 to 3000 nM | maximum fold (Fold) increase of Smn protein [1]: ***** (fold increase >1.65) | melting point: 166 to 169 °C | EC (1.5-fold) [2, 3]: 3 to 30 µM

Structure (SMILES): Cc1nccn2cc(-c3cc4ccc(N5CCN6CCC[C@@H]6C5)cc4oc3=O)cc12 [Compound 636, 7-[(8aR)-hexahydropyrrolo[1,2-a]pyrazin-2(1H)-yl]-3-(1-methylpyrrolo[1,2-a]pyrazin-7-yl)-2H-chromen-2-one]
maximum fold (Fold) increase of Smn protein [1]: ** (fold increase between >1.2 and ≤1.35) | melting point: 170 to 173 °C | EC (1.5-fold) [2, 3]: < 0.1 µM

Further lines, with some results ahead:

melting point: 257 to 264 °C
Structure (SMILES): C[C@@H]1CN(c2ccc3cc(-c4cn5ccc(C(F)(F)F)cc5n4)c(=O)oc3c2)C[C@H](C)N1 [Compound 116, 7-[(3R,5S)-3,5-dimethylpiperazin-1-yl]-3-[7-(trifluoromethyl)imidazo[1,2-a]pyridin-2-yl]-2H-chromen-2-one]
maximum fold (Fold) increase of Smn protein [1]: ** (fold increase between >1.2 and ≤1.35) | EC (1.5-fold) [2, 3]: 0.3 to 1 µM

melting point: 250 to 255 °C
Structure (SMILES): Cc1cc(F)c2nc(-c3cc4ccc(N5CCN[C@@H](C)C5)cc4oc3=O)cn2c1 [Cpd 421, 3-(8-fluoro-6-methylimidazo[1,2-a]pyridin-2-yl)-7-[(3S)-3-methylpiperazin-1-yl]-2H-chromen-2-one]
EC1.5x (concentration giving 1.5-fold Smn protein increase) [1]: < 300 nM | maximum fold (Fold) increase of Smn protein [1]: *** (fold increase between >1.35 and ≤1.5) | EC (1.5-fold) [2, 3]: < 0.1 µM

melting point: 249 to 259 °C
Structure (SMILES): CCN1CCC(c2ccc3cc(-c4cn5cc(C)ncc5n4)c(=O)oc3c2)CC1 [Compound 844, 7-(1-ethylpiperidin-4-yl)-3-(6-methylimidazo[1,2-a]pyrazin-2-yl)-2H-chromen-2-one]
EC1.5x (concentration giving 1.5-fold Smn protein increase) [1]: 300 to 1000 nM | maximum fold (Fold) increase of Smn protein [1]: **** (fold increase between >1.5 and ≤1.65) | EC (1.5-fold) [2, 3]: < 0.1 µM

melting point: 250 to 256 °C
Structure (SMILES): Cc1cn2cc(-c3cc4ccc(NC5CNC5)cc4oc3=O)nc2c(C)n1 [Compound 619, 7-(azetidin-3-ylamino)-3-(6,8-dimethylimidazo[1,2-a]pyrazin-2-yl)-2H-chromen-2-one]
EC1.5x (concentration giving 1.5-fold Smn protein increase) [1]: < 300 nM | maximum fold (Fold) increase of Smn protein [1]: **** (fold increase between >1.5 and ≤1.65) | EC (1.5-fold) [2, 3]: < 0.1 µM

melting point: 279 to 281 °C
Structure (SMILES): Cc1ccn2nc(-c3cc4ccc(N5CCN(C)CC5)cc4oc3=O)cc2c1 [Compound 303, 7-(4-methylpiperazin-1-yl)-3-(5-methylpyrazolo[1,5-a]pyridin-2-yl)-2H-chromen-2-one]
EC1.5x (concentration giving 1.5-fold Smn protein increase) [1]: 3000 to 10000 nM | maximum fold (Fold) increase of Smn protein [1]: *** (fold increase between >1.35 and ≤1.5) | EC (1.5-fold) [2, 3]: 0.3 to 1 µM

melting point: 278 to 283 °C
Structure (SMILES): O=c1oc2cc(N3CCNCC3)cc(F)c2cc1-c1cn2ccsc2n1 [Compound 311, 5-fluoro-3-(imidazo[2,1-b][1,3]thiazol-6-yl)-7-(piperazin-1-yl)-2H-chromen-2-one]
EC1.5x (concentration giving 1.5-fold Smn protein increase) [1]: 1000 to 3000 nM | maximum fold (Fold) increase of Smn protein [1]: *** (fold increase between >1.35 and ≤1.5) | EC (1.5-fold) [2, 3]: < 0.1 µM

melting point: 270 to 272 °C
Structure (SMILES): Cc1cn2cc(-c3cc4ccc(N5CCN(C(C)(C)C)CC5)cc4oc3=O)nc2c(C)n1 [Compound 812, 7-(4-tert-butylpiperazin-1-yl)-3-(6,8-dimethylimidazo[1,2-a]pyrazin-2-yl)-2H-chromen-2-one]
maximum fold (Fold) increase of Smn protein [1]: *** (fold increase between >1.35 and ≤1.5) | EC (1.5-fold) [2, 3]: < 0.1 µM

melting point: 141 to 143 °C
Structure (SMILES): COc1ccc(-c2cc3ccc(N4CCN[C@@H](C)C4)cc3oc2=O)cc1F [Compound 545, 3-(3-fluoro-4-methoxyphenyl)-7-[(3S)-3-methylpiperazin-1-yl]-2H-chromen-2-one]
maximum fold (Fold) increase of Smn protein [1]: *** (fold increase between >1.35 and ≤1.5) | EC (1.5-fold) [2, 3]: 0.1 to 0.3 µM

melting point: 186 to 190 °C
Structure (SMILES): CC(CO)NCc1ccc2cc(-c3nc4c(Cl)cccc4s3)c(=O)oc2c1 (centres unmarked) [Compound 270, 3-(4-chloro-1,3-benzothiazol-2-yl)-7-{[(1-hydroxypropan-2-yl)amino]methyl}-2H-chromen-2-one]
maximum fold (Fold) increase of Smn protein [1]: ** (fold increase between >1.2 and ≤1.35) | EC (1.5-fold) [2, 3]: 1 to 3 µM

melting point: 254 to 258 °C
Structure (SMILES): Cc1cn2cc(-c3cc4ccc(O[C@@H]5CCNC5)cc4oc3=O)nc2cn1 [Compound 594, 3-(6-methylimidazo[1,2-a]pyrazin-2-yl)-7-[(3R)-pyrrolidin-3-yloxy]-2H-chromen-2-one]
EC1.5x (concentration giving 1.5-fold Smn protein increase) [1]: < 300 nM | maximum fold (Fold) increase of Smn protein [1]: ***** (fold increase >1.65) | EC (1.5-fold) [2, 3]: < 0.1 µM

melting point: 188 to 192 °C
Structure (SMILES): O=c1oc2cc(CN3CCC(O)C3)ccc2cc1-c1nc2c(Cl)cccc2s1 (centres unmarked) [Compound 272, 3-(4-chloro-1,3-benzothiazol-2-yl)-7-[(3-hydroxypyrrolidin-1-yl)methyl]-2H-chromen-2-one]
maximum fold (Fold) increase of Smn protein [1]: ** (fold increase between >1.2 and ≤1.35) | EC (1.5-fold) [2, 3]: 1 to 3 µM

melting point: 278 to 280 °C
Structure (SMILES): CN1CCN(c2ccc3cc(-c4cn5cccc(F)c5n4)c(=O)oc3c2)CC1 [Compound 150, 3-(8-fluoroimidazo[1,2-a]pyridin-2-yl)-7-(4-methylpiperazin-1-yl)-2H-chromen-2-one]
EC1.5x (concentration giving 1.5-fold Smn protein increase) [1]: 3000 to 10000 nM | maximum fold (Fold) increase of Smn protein [1]: *** (fold increase between >1.35 and ≤1.5) | EC (1.5-fold) [2, 3]: 0.3 to 1 µM

melting point: 109 to 111 °C
Structure (SMILES): COc1c(F)cc(F)cc1-c1cc2ccc(N3CCNCC3)cc2oc1=O [Compound 538, 3-(3,5-difluoro-2-methoxyphenyl)-7-(piperazin-1-yl)-2H-chromen-2-one]
maximum fold (Fold) increase of Smn protein [1]: * (maximum fold increase of ≤1.2) | EC (1.5-fold) [2, 3]: 3 to 30 µM
